The test system of one assay is calf brain tubulin. Kind of assay: In vitro tubulin polymerization. It counts as biochemical. To be noted: interpolated concentration inducing an initial slope of 0.01 OD/minute; 1.0 mg/ml microtubule protein, 37°; read-out: Tubulin assay EC0.01. The procedure:
In vitro Tubulin Polymerization
Twice cycled (2×) calf brain tubulin was prepared following the procedure of Williams and Lee (see Williams, R. C., Jr., and Lee, J. C. Preparation of tubulin from brain. Methods in Enzymology 85, Pt. D: 376-385, 1982) and stored in liquid nitrogen before use. Quantification of tubulin polymerization potency is accomplished following a modified procedure of Swindell, et al., (see Swindell, C. S., Krauss, N. E., Horwitz, S. B., and Ringel, L. Biologically active taxol analogues with deleted A-ring side chain substituents and variable C-2′ configurations. J. Med. Chem. 34: 1176-1184, 1991). These modifications, in part, result in the expression of tubulin polymerization potency as an effective concentration for any given compound. For this method, different concentrations of compound in polymerization buffer (0.1M MES, 1 mM EGTA, 0.5 mM MgCl2, pH 6.6) are added to tubulin in polymerization buffer at 37° in microcuvette wells of a Beckman (Beckman Instruments) Model DU 7400 UV spectrophotometer. A final microtubule protein concentration of 1.0 mg/ml and compound concentration of generally 2.5, 5.0, and 10 μM are used. Initial slopes of OD change measured every 10 seconds were calculated by the program accompanying the instrument after initial and final times of the linear region encompassing at least 3 time points were manually defined. Under these conditions linear variances were generally <10^−6, slopes ranged from 0.03 to 0.002 absorbance unit/minute, and maximum absorbance was 0.15 absorbance units. Effective concentration (EC0.01) is defined as the interpolated concentration capable of inducing an initial slope of 0.01 OD/minute rate and is calculated using the formula: EC0.01=concentration/slope. EC0.01 values are expressed as the mean with standard deviation obtained from 3 different concentrations. EC0.01 values for the compounds in this invention fall in the range 0.01-1000 μM.

In assay [1] the test system is HCT-116 human colon carcinoma cells. The assay can be described thus: Cytotoxicity (in vitro) by MTS assay. It counts as cell-based. As to conditions: read-out: HTC-116 assay IC50. The procedure:
Cytoxicity was assessed in HCT-116 human colon carcinoma cells by MTS (3-(4,5-dimethylthiazol-2-yl)-5-(3-carboxymethoxyphenyl)-2-(4-sulphenyl)-2H-tetrazolium, inner salt) assay as reported in T. L. Riss, et. al., “Comparison of MTT, XTT, and a novel tetrazolium compound MTS for in vitro proliferation and chemosensitivity assays.,” Mol. Biol. Cell 3 (Suppl.): 184a, 1992. Cells were plated at 4,000 cell/well in 96 well microtiter plates and 24 hours later drugs were added and serial diluted. The cells were incubated at 37° form 72 hours at which time the tetrazolium dye, MTS at 333 μg/ml (final concentration), in combination with the electron coupling agent phenazine methosulfate at 25 μM (final concentration) was added. A dehydrogenase enzyme in live cells reduces the MTS to a form that absorbs light at […] which can be quantitated spectrophotometrically. The greater the absorbance the greater the number of live cells. The results are expressed as an IC50, which is the drug concentration required to inhibit cell proliferation (i.e. absorbance at 450 nm) to 50% of that of untreated control cells.
On the technique in general: Tetrazolium assays rely on reduction of a dye to a coloured formazan, in cell work by metabolically active cells.

Setting [2] is: HCT-116, 72 hours incubation, MTS.

Where two headings read alike, the source gives them in different places.

As usually defined, the IC50 is the midpoint of a concentration-inhibition curve. As to `C/C(=C\c1csc(C)n1)[C@@H]1C[C@@H]2NC2CCCC(C)[C@H](O)[C@@H](C)C(=O)C(C)(C)[C@@H](O)CC(=O)O1` (relative stereo) [Example 1, [1S-[1R*,3R*(E),7R*,10S*,11R*,12R*,16S*]]-7,11-Dihydroxy-8,8,10,12-tetramethyl-3-[1-methyl-2-(2-methyl-4-thiazolyl)ethenyl]-4-oxa-17-azabicyclo[14.1.0]heptadecane-5,9-dione.], the EC50 in the assay with calf brain tubulin is 14 µM. In addition, the IC50 in assay [1] (HCT-116, 72 h) was 0.0027 µM.

Take `C/C(=C\c1csc(C)n1)[C@@H]1C[C@H]2C(CCCC(C)[C@H](O)[C@@H](C)C(=O)C(C)(C)[C@@H](O)CC(=O)O1)N2C(=O)CN(C)C` (relative stereo) [Example 4, [1S-[1R*,3R*(E),7R*,10S*,11R*,12R*,16S*]]-17-[Dimethylamino)acetyl]-7,11-dihydroxy-8,8,10,12-tetramethyl-3-[1-methyl-2(2-methyl-4-thiazolyl)ethenyl]-4-oxa-17-azabicyclo[14.1.0]heptadecane-5,9-dione.]: in the assay with calf brain tubulin, the EC50 is greater than 1000 µM.

With `C/C(=C\c1csc(C)n1)C1CC2[C@@H](CCC[C@H](C)[C@H](O)[C@@H](C)C(=O)C(C)(C)[C@@H](O)CC(=O)O1)N2C(=O)CC(C)C` (relative stereo) [Example 5, [1S-[1R*,3R*(E),7R*,10S*,11R*,12R*,16S*]]-7,11-Dihydroxy-8,8,10,12-tetramethyl-3-[1-methyl-2-(2-methyl-4-thiazolyl)ethenyl]-17-(3-methyl-1-oxobutyl)-4-oxa-17-azabicyclo[14.1.0]heptadecane-5,9-dione.], the EC50 in the assay on calf brain tubulin came out at 3.5 µM. Further, the IC50 in assay [1] (setting [2]) was determined as 0.041 µM.

Turning to `C/C(=C\c1csc(C)n1)C1CC2[C@@H](CCC[C@H](C)[C@H](O)[C@@H](C)C(=O)C(C)(C)[C@@H](O)CC(=O)O1)[N@@]2S(C)(=O)=O` (relative stereo) [Example 6, [1S-[1R*,3R*(E), 7R*,10S,11R*,12R*,16S*]]-17-N-Methylsulfonyl-7,11-dihydroxy-8,8,10,12-tetramethyl-3-[1-methyl-2-(2-methyl-4-thiazolyl)ethenyl]-4-oxa-17-azabicyclo[14.1.0]heptadecane-5,9-dione.], the EC50 in the assay with calf brain tubulin stood at 14 µM. Also, in assay [1] (setting [2]), the IC50 worked out at 0.0021 µM.

Take `CCNC(=O)N1C2CC(/C(C)=C/c3csc(C)n3)OC(=O)C[C@H](O)C(C)(C)C(=O)[C@H](C)[C@@H](O)[C@@H](C)CCC[C@H]21` (relative stereo) [Example 7, 1S-[1R*,3R*(E),7R*,10S,11R*,12R*,16S*]]-N-Ethyl-7,11-dihydroxy-8,8,10,12-tetramethyl-3-[1-methyl-2-(2-methyl-4-thiazolyl)ethenyl]-4-oxa-17-azabicyclo[14.1.0]heptadecane-5,9-dione-17-carboxamide.]: the EC50 in the assay with calf brain tubulin is greater than 1000 µM.

`C/C(=C\c1csc(C)n1)C1CC2[C@@H](CCC[C@H](C)[C@H](O)[C@@H](C)C(=O)C(C)(C)[C@@H](O)CC(=O)O1)[N@@]2C` (relative stereo) [Example 8, [1S-[1R*,3R*(E),7R*,10S*,11R*,12R*,16S*]]-7,11-Dihydroxy-8,8,10,12,17-pentamethyl-3-[1-methyl-2-(2-methyl-4-thiazolyl)ethenyl]-4-oxa-17-azabicyclo[14.1.0]heptadecane-5,9-dione]: in the assay with calf brain tubulin, the EC50 was 2.6 µM. Moreover, the IC50 in assay [1] (HCT-116, 72 h) was determined as 0.00013 µM.

Take `C/C(=C\c1csc(C)n1)[C@@H]1C[C@H]2C(CCCC(C)[C@H](O)[C@@H](C)C(=O)C(C)(C)[C@@H](O)CC(=O)O1)[N@@]2Cc1ccccc1` (relative stereo) [Example 15, [1S-[1R*,3R*(E),7R*,10S,11R*,12R*,16S*]]-17-Benzyl-7,11-dihydroxy-8,8,10,12-tetramethyl-3-[1-methyl-2-(2-methyl-4-thiazolyl)ethenyl]-4-oxa-17-azabicyclo[14.1.0]heptadecane-5,9-dione.]: the EC50 with calf brain tubulin is 35 µM. The IC50 in assay [1] (HCT-116, 72 h) stood at 0.023 µM.

Turning to `C/C(=C\c1csc(C)n1)[C@@H]1C[C@H]2C(CCCC(C)[C@H](O)[C@@H](C)C(=O)C(C)(C)[C@@H](O)CC(=O)O1)[N@]2S(N)(=O)=O` (relative stereo) [Example 16, [1S-[1R*,3R*(E),7R*,10S,11R*,12R*,16S*]]-17-Sulfonylurea-7,11-dihydroxy-8,8,10,12-tetramethyl-3-[1-methyl-2-(2-methyl-4-thiazolyl)ethenyl]-4-oxa-17-azabicyclo[14.1.0]heptadecane-5,9-dione.], in the assay with calf brain tubulin, the EC50 worked out at 28 µM. Moreover, the IC50 in assay [1] (setting [2]) turned out to be 0.036 µM.

Take `CNS(=O)(=O)[N@@]1C2CCCC(C)[C@H](O)[C@@H](C)C(=O)C(C)(C)[C@@H](O)CC(=O)O[C@H](/C(C)=C/c3csc(C)n3)C[C@@H]21` (relative stereo) [Example 17]: in the assay on calf brain tubulin, the EC50 stood at 2.3 µM. Further, the IC50 in assay [1] (setting [2]) turned out to be 0.0078 µM.

`C/C(=C\c1csc(C)n1)C1CC2[C@@H](CCC[C@H](C)[C@H](O)[C@@H](C)C(=O)C(C)(C)[C@@H](O)CC(=O)O1)[N@@]2S(=O)(=O)N(C)C` (relative stereo) [Example 18, [1S-[1R*,3R*(E),7R*,10S*,11R*,12R*,16S*]]-7,11-Dihydroxy-N,N,8,8,10,12-hexamethyl-3-[1-methyl-2-(2-methyl-4-thiazolyl)ethenyl]-5,9-dioxo-4-oxa-17-azabicyclo[14.1.0]heptadecane-17-sulfonamide.]: in the assay on calf brain tubulin, the EC50 worked out at 1 µM. The IC50 in assay [1] (setting [2]) was 0.0002 µM.

For `C/C(=C\c1csc(C)n1)C1CC2[C@@H](CCC[C@H](C)[C@H](O)[C@@H](C)C(=O)C(C)(C)[C@@H](O)CC(=O)O1)[N@@]2S(=O)(=O)N1CCOCC1` (relative stereo) [Example 19, [1S-[1R*,3R*(E),7R*,10S,11R*,12R*,16S*]]-17-Morpholinosulfonyl-7,11-dihydroxy-8,8,10,12-tetramethyl-3-[1-methyl-2-(2-methyl-4-thiazolyl)ethenyl]-4-oxa-17-azabicyclo[14.1.0]heptadecane-5,9-dione.], the EC50 in the assay on calf brain tubulin was determined as 460 µM. Further, in assay [1] (setting [2]), the half-inhibitory concentration (IC50) turned out to be 0.16 µM.

With `C/C(=C\c1csc(C)n1)C1CC2[C@@H](CCC[C@H](C)[C@H](O)[C@@H](C)C(=O)C(C)(C)[C@@H](O)CC(=O)O1)N2C(=O)Oc1ccccc1` (relative stereo) [Example 20, [1S-[1R*,3R*(E),7R*,10S,11R*,12R*,16S*]]-7,11-dihydroxy-8,8,10,12-tetramethyl-3-[1-methyl-2-(2-methyl-4-thiazolyl)ethenyl]-4-oxa-17-azabicyclo[14.1.0]heptadecane-5,9-dione-17-carboxylic acid phenyl ester.], the EC50 with calf brain tubulin was determined as 1.1 µM. In addition, the IC50 in assay [1] (setting [2]) was found to be 0.0018 µM.

Regarding `CC(=Cc1csc(C)n1)C1CC2OC2CCCC(C)C(O)C(C)C(=O)C(C)(C)C(O)CC(=O)O1` (centres unmarked) [Epothilone A, reference compound], in assay [1] (setting [2]), the IC50 came to 0.0044 µM.

Consider `CC(=Cc1csc(C)n1)C1CC2OC2(C)CCCC(C)C(O)C(C)C(=O)C(C)(C)C(O)CC(=O)O1` (centres unmarked) [Epothilone B, reference compound], for which the IC50 in assay [1] (HCT-116, 72 h) worked out at 0.0008 µM.

As for `CCCS(=O)(=O)N1C2CCCC(C)C(O)C(C)C(=O)C(C)(C)C(O)CC(=O)OC(C(C)=Cc3csc(C)n3)CC21` [Example 25, [1S-[1R*,3R*(E),7R*,10S,11R*,12R*,16S*]]-17-N-n-Propylsulfonyl-7,11-dihydroxy-8,8,10,12-tetramethyl-3-[1-methyl-2-(2-methyl-4-thiazolyl)ethenyl]-4-oxa-17-azabicyclo[14.1.0]heptadecane-5,9-dione.], the IC50 in assay [1] (setting [2]) is 0.094 µM.

Turning to `CC(=Cc1csc(C)n1)C1CC2C(CCCC(C)C(O)C(C)C(=O)C(C)(C)C(O)CC(=O)O1)N2S(=O)(=O)c1cccs1` (stereo not drawn) [Example 26, [1S-[1R*,3R*(E),7R*,10S*,11R*,12R*,16S*]]-17-(2-thienyl)sulfonyl-7,11-dihydroxy-8,8,10,12-tetramethyl-3-[1-methyl-2-(2-methyl-4-thiazolyl)ethenyl]-4-oxa-17-azabicyclo[14.1.0]heptadecane-5,9-dione.], the IC50 in assay [1] (setting [2]) came to 0.03 µM.

The record behind these values is patent US6800653B2, “Epothilone derivatives” (priority 2001, dated 2004).
